As usually defined, the T/C is the result in the treated group divided by that in the control group, in per cent.

The subject of the experiment is Swiss mice, Sarcoma 180 sc, mean tumor weight T/C. Briefly: NCI In Vivo Anticancer Drug Screen. Data for tumor model Sarcoma 180 (subcutaneous) in Swiss mice. The note with it: endpoint: mean tumor weight, higher = larger tumour. The gist of the method: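 Mice bearing transplanted tumors were treated with compound, and survival or tumor size was measured. Values are expressed as the treated-group measurement (T) divided by the vehicle-treated control measurement (C).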

Setting [1] is: dose: 5.0 mg/kg/injection, schedule: Q01DX007 (ip), vehicle: carboxymethylcellulose (CMC).
[2] abbreviates: dose: 50.0 mg/kg/injection, schedule: Q01DX007 (ip), vehicle: carboxymethylcellulose (CMC).
Setting [3] is: dose: 12.5 mg/kg/injection, schedule: Q01DX007 (ip), vehicle: carboxymethylcellulose (CMC).
Where [4] appears, read: dose: 25.0 mg/kg/injection, schedule: Q01DX007 (ip), vehicle: carboxymethylcellulose (CMC).

Where “and” joins values, the source holds several entries; their conditions need not be identical. Equal entries are not always repeated.

Regarding `C[C@]12CCC(=O)C=C1CC[C@H]1[C@@H]3CC[C@](O)(C(=O)CF)[C@@]3(C)C[C@H](O)[C@@]12F`, the T/C reads like this: (dose: 20.5 mg/kg/injection, schedule: Q#A X014 (sc), vehicle: steriod suspending solution) 54 % of control; (dose: 31.0 mg/kg/injection, schedule: Q#A X014 (sc), vehicle: steriod suspending solution) 62 % of control; (dose: 46.5 mg/kg/injection, schedule: Q#A X014 (sc), vehicle: steriod suspending solution) 48 % of control.
Regarding `O=[As]O`, the T/C by setting is: (dose: 1.67 mg/kg/injection, schedule: Q01DX007 (ip), vehicle: carboxymethylcellulose (CMC)) 90 % of control; (dose: 3.12 mg/kg/injection, schedule: Q#A X014 (ip), vehicle: carboxymethylcellulose (CMC)) 121 % of control; (dose: 3.33 mg/kg/injection, schedule: Q01DX007 (ip), vehicle: carboxymethylcellulose (CMC)) 78 % of control; (dose: 3.37 mg/kg/injection, schedule: Q01DX007 (ip), vehicle: carboxymethylcellulose (CMC)) 98 % of control; under setting [1], 66 % of control; (dose: 6.25 mg/kg/injection, schedule: Q#A X014 (ip), vehicle: carboxymethylcellulose (CMC)) 99 % of control. Also, the T/C runs as follows: (dose: 6.65 mg/kg/injection, schedule: Q01DX007 (ip), vehicle: carboxymethylcellulose (CMC)) 85 % of control; (dose: 7.0 mg/kg/injection, schedule: Q01DX007 (ip), vehicle: carboxymethylcellulose (CMC)) 90 % of control; (dose: 9.0 mg/kg/injection, schedule: Q01DX007 (ip), vehicle: carboxymethylcellulose (CMC)) 83 % of control; (dose: 11.0 mg/kg/injection, schedule: Q01DX007 (ip), vehicle: carboxymethylcellulose (CMC)) 64 % of control.
As for `COC(=O)C1=CO[C@@H](C)[C@@H]2Cn3ccc4c5ccccc5nc-4c3C[C@H]12`, the T/C is, setting by setting: (dose: 10.0 mg/kg/injection, schedule: Q01DX007 (ip), vehicle: other) 113 % of control; (dose: 50.0 mg/kg/injection, schedule: Q01DX007 (ip), vehicle: other) 74 % of control.
Take `Cn1cc(F)c(=O)[nH]c1=O`: the T/C is 99 % of control and 112 % of control (dose: 10.0 mg/kg/injection, schedule: Q01DX007 (ip), vehicle: carboxymethylcellulose (CMC)); 88 % of control and 94 % of control (dose: 20.0 mg/kg/injection, schedule: Q01DX007 (ip), vehicle: carboxymethylcellulose (CMC)); 95 % of control (dose: 80.0 mg/kg/injection, schedule: Q01DX007 (ip), vehicle: carboxymethylcellulose (CMC)).
Regarding `CCCCN(C)N=Nc1ccc(C(N)=O)cc1`, the T/C runs as follows: under setting [2], 67 % of control; (dose: 75.0 mg/kg/injection, schedule: Q01DX007 (ip), vehicle: carboxymethylcellulose (CMC)) 32 % of control.
With `CN1C=c2c3c(ccc2=C2C=CC4C=C5OCOC5=CC4=C21)OCO3` (stereo unspecified), the T/C was 105 % of control (dose: 1.3 mg/kg/injection, schedule: Q#A X014 (ip), vehicle: saline); 82 % of control (dose: 2.0 mg/kg/injection, schedule: Q#A X014 (ip), vehicle: saline); 79 % of control and 96 % of control (dose: 3.0 mg/kg/injection, schedule: Q#A X014 (ip), vehicle: saline); 28 % of control (dose: 10.0 mg/kg/injection, schedule: Q#A X014 (ip), vehicle: saline); 84 % of control (dose: 12.0 mg/kg/injection, schedule: Q#A X014 (oral), vehicle: saline); 70 % of control (dose: 18.0 mg/kg/injection, schedule: Q#A X014 (oral), vehicle: saline). In addition, the T/C is 73 % of control (dose: 27.0 mg/kg/injection, schedule: Q#A X014 (oral), vehicle: saline) and 53 % of control (dose: 60.0 mg/kg/injection, schedule: Q#A X014 (oral), vehicle: saline).
For `O=C(O)O.[Cd]`, the T/C under setting [1] was 69 % of control.
For `CC1=C(/C=C/C(C)=N/NC(N)=S)C(C)(C)CCC1`, the T/C (dose: 20.0 mg/kg/injection, schedule: Q01DX007 (ip), vehicle: other) is 48 % of control and 66 % of control.
`CCOC(=O)C(N)CC(C)C` (stereo unspecified): the T/C reads like this: (dose: 250.0 mg/kg/injection, schedule: Q01DX007 (ip), vehicle: carboxymethylcellulose (CMC)) 101 % of control; (dose: 500.0 mg/kg/injection, schedule: Q01DX007 (ip), vehicle: carboxymethylcellulose (CMC)) 120 % of control.
On to `CCc1c(CC(=O)O)c2cc(C)ccc2n1Cc1ccc(Cl)cc1`, for which the T/C reads like this: (dose: 6.25 mg/kg/injection, schedule: Q01DX007 (ip), vehicle: saline) 82 % of control; (dose: 12.5 mg/kg/injection, schedule: Q01DX007 (ip), vehicle: saline) 98 % of control and 87 % of control; (dose: 24.0 mg/kg/injection, schedule: Q01DX007 (ip), vehicle: carboxymethylcellulose (CMC)) 95 % of control; (dose: 36.0 mg/kg/injection, schedule: Q01DX007 (ip), vehicle: carboxymethylcellulose (CMC)) 89 % of control; (dose: 54.0 mg/kg/injection, schedule: Q01DX007 (ip), vehicle: carboxymethylcellulose (CMC)) 109 % of control; (dose: 81.0 mg/kg/injection, schedule: Q01DX007 (ip), vehicle: carboxymethylcellulose (CMC)) 73 % of control. Besides, the T/C (dose: 100.0 mg/kg/injection, schedule: Q01DX007 (ip), vehicle: saline) is 64 % of control and 80 % of control.
Take `CN1CC(=O)N=C1N`: the T/C runs as follows: (dose: 500.0 mg/kg/injection, schedule: Q#A X014 (ip), vehicle: water) 74 % of control; (dose: 1500.0 mg/kg/injection, schedule: Q#A X014 (ip), vehicle: water) 73 % of control.
With `N#Cc1cn(C2OC(CO)C(O)C2O)c2ncnc(N)c12` (stereo unspecified), under “dose: 0.05 mg/kg/injection, schedule: Q#A X014 (ip), vehicle: carboxymethylcellulose (CMC)”, the T/C was 79 % of control.
Turning to `CS(C)=O`, the T/C was 71 % of control (dose: 1000.0 mg/kg/injection, schedule: Q01DX007 (ip), vehicle: other); 91 % of control (dose: 1000.0 mg/kg/injection, schedule: Q#A X014 (ip), vehicle: other); 84 % of control (dose: 1500.0 mg/kg/injection, schedule: Q01DX007 (ip), vehicle: other); 99 % of control (dose: 1500.0 mg/kg/injection, schedule: Q#A X014 (ip), vehicle: other).
Consider `CC(C)OC(=O)C1(N)CCCC1`, for which the T/C by setting is: (dose: 33.0 mg/kg/injection, schedule: Q#A X014 (ip), vehicle: saline) 61 % of control; (dose: 50.0 mg/kg/injection, schedule: Q#A X014 (ip), vehicle: saline) 67 % of control; (dose: 75.0 mg/kg/injection, schedule: Q#A X014 (ip), vehicle: saline) 49 % of control; (dose: 112.5 mg/kg/injection, schedule: Q#A X014 (ip), vehicle: saline) 20 % of control.
For `CCCCn1cnc2c(=S)nc[nH]c21`, the T/C reads like this: under setting [3], 77 % of control; under setting [4], 53 % of control; under setting [2], 63 % of control; (dose: 100.0 mg/kg/injection, schedule: Q01DX007 (ip), vehicle: carboxymethylcellulose (CMC)) 29 % of control.
In the case of `O=C1C=CC(=O)N1c1ccc2c(c1)oc(=O)c1ccccc12`, the T/C was 76 % of control (dose: 60.0 mg/kg/injection, schedule: Q01DX007 (ip), vehicle: other); 58 % of control (dose: 95.0 mg/kg/injection, schedule: Q01DX007 (ip), vehicle: other); 51 % of control (dose: 99.0 mg/kg/injection, schedule: Q01DX007 (ip), vehicle: steriod suspending solution); 42 % of control (dose: 148.0 mg/kg/injection, schedule: Q01DX007 (ip), vehicle: other); 81 % of control (dose: 148.0 mg/kg/injection, schedule: Q01DX007 (ip), vehicle: steriod suspending solution); 36 % of control and 44 % of control (dose: 222.0 mg/kg/injection, schedule: Q01DX007 (ip), vehicle: other). Also, the T/C was 69 % of control (dose: 222.0 mg/kg/injection, schedule: Q01DX007 (ip), vehicle: steriod suspending solution); 49 % of control (dose: 333.0 mg/kg/injection, schedule: Q01DX007 (ip), vehicle: other); 29 % of control (dose: 500.0 mg/kg/injection, schedule: Q01DX007 (ip), vehicle: other).
For the molecule `N#[N+]c1n[nH]nc1C(N)=O`, the T/C under setting [3] was 114 % of control and the T/C under setting [4] was 74 % of control.
Turning to `Fc1ccc(NC(=S)Nc2cc(Cl)cc(Cl)c2)cc1`, the T/C by setting is: (dose: 15.0 mg/kg/injection, schedule: Q01DX007 (ip), vehicle: carboxymethylcellulose (CMC)) 115 % of control; (dose: 30.0 mg/kg/injection, schedule: Q01DX007 (ip), vehicle: carboxymethylcellulose (CMC)) 117 % of control.
With `CN(C)NCCC#N`, the T/C was 91 % of control (dose: 15.0 mg/kg/injection, schedule: Q#A X014 (ip), vehicle: methylcellulose (MC)); 52 % of control (dose: 22.5 mg/kg/injection, schedule: Q#A X014 (ip), vehicle: methylcellulose (MC)); 49 % of control (dose: 33.5 mg/kg/injection, schedule: Q#A X014 (ip), vehicle: methylcellulose (MC)); 39 % of control (dose: 50.0 mg/kg/injection, schedule: Q#A X014 (ip), vehicle: methylcellulose (MC)).

The values are drawn from PubChem BioAssay AID342 (DTP/NCI, 2004).
